From patent publication US9593149B2, “Amylin and calcitonin receptor agonist” (Novo Nordisk A/S, priority 2014, dated 2017)
Peptide text beside a SMILES is read from it. * marks the point of attachment. C18 diacid = O=C(O)CCCCCCCCCCCCCCCCC(=O)*

Experiment: Assay (IV) determination of solubility
Assay type: physicochemical
Method: Assay (IV)—Determination of Solubility
The mimylin peptide was dissolved in water at ˜500 nmol/ml and mixed 1:1 with a series of buffers (100 mM glycylglycine pH 3.0, 100 mM glycylglycine pH 4.0, 100 mM glycylglycine pH 5.0, 100 mM bistrispropane pH 6.0, 100 mM bistrispropane pH 6.5, 100 mM bistrispropane pH 7.0, 100 mM bistrispropane pH 7.5, 100 mM bistrispropane pH 8.0).

Measured: Solubility

CC(C)C[C@H](NC(=O)[C@H](C)NC(=O)[C@H](C)NC(=O)[C@@H](NC(=O)[C@H](CO)NC(=O)[C@H](CC(C)C)NC(=O)[C@H](CCC(=O)O)NC(=O)[C@H](CO)NC(=O)[C@H](C)NC(=O)[C@H](CCC(=O)O)NC(=O)CCCCCCCCCCCCCCCCC(=O)O)[C@@H](C)O)C(=O)NCC(=O)N[C@@H](CCCNC(=N)N)C(=O)N[C@@H](CC(C)C)C(=O)N[C@@H](CO)C(=O)N[C@@H](C)C(=O)N[C@@H](CCC(=O)O)C(=O)N[C@@H](CC(C)C)C(=O)N[C@@H](Cc1cnc[nH]1)C(=O)N[C@@H](CCC(=O)O)C(=O)N[C@@H](CC(C)C)C(=O)N[C@@H](C)C(=O)N[C@H](C(=O)N[C@@H](CC(C)C)C(=O)N1CCC[C@H]1C(=O)N[C@@H](CCCNC(=N)N)C(=O)N[C@H](C(=O)N[C@@H](CCC(=O)O)C(=O)N[C@H](C(=O)NCC(=O)N1CCC[C@H]1C(=O)N[C@@H](CCC(=O)O)C(=O)N[C@@H](CO)C(=O)N1CCC[C@H]1C(N)=O)[C@@H](C)O)[C@@H](C)O)[C@@H](C)O [Ex. #2, [N-terminal(C18 diacid)]mimylin] ({C18 diacid}-EASELSTAALGRLSAELHELATLPRTETGPESP-NH2)
≧200 μM: pH 3.0 | pH 4.0 | pH 5.0 | pH 6.0 | pH 6.5 | pH 7.0 | pH 7.5 | pH 8.0
